Test results as given in PubChem BioAssay AID330 (DTP/NCI, 2004).
Where “and” joins values, the source holds several entries; their conditions need not be identical. Identical values can stand only once. Toxic doses and inconclusive results are not listed.

System: P388 leukemia ip, CD2F1 mice, survival T/C
Test: NCI In Vivo Anticancer Drug Screen. Data for tumor model P388 Leukemia (intraperitoneal) in CD2F1 (CDF1) mice
Conditions: endpoint: median survival time, higher = longer survival
Summary of the method: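 Mice carrying the transplanted tumor received test compound or vehicle. Survival was recorded in each group, and the value is the treated-group measurement divided by that of the vehicle-treated control group.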

[1] = dose: 60.0 mg/kg/injection, schedule: Q01DX005 (ip), vehicle: saline with Tween-80
[2] = dose: 120.0 mg/kg/injection, schedule: Q01DX005 (ip), vehicle: saline with Tween-80
[3] = dose: 50.0 mg/kg/injection, schedule: Q01DX005 (ip), vehicle: Klucel (hydroxypropylcellulose) (HPC)
[4] = dose: 100.0 mg/kg/injection, schedule: Q01DX005 (ip), vehicle: Klucel (hydroxypropylcellulose) (HPC)
[5] = dose: 200.0 mg/kg/injection, schedule: Q01DX005 (ip), vehicle: Klucel (hydroxypropylcellulose) (HPC)
[6] = dose: 25.0 mg/kg/injection, schedule: Q01DX005 (ip), vehicle: saline with Tween-80
[7] = dose: 50.0 mg/kg/injection, schedule: Q01DX005 (ip), vehicle: saline with Tween-80
[8] = dose: 100.0 mg/kg/injection, schedule: Q01DX005 (ip), vehicle: saline with Tween-80
[9] = dose: 50.0 mg/kg/injection, schedule: Q01DX009 (ip), vehicle: saline
[10] = dose: 100.0 mg/kg/injection, schedule: Q01DX009 (ip), vehicle: saline
[11] = dose: 200.0 mg/kg/injection, schedule: Q01DX009 (ip), vehicle: saline
[12] = dose: 60.0 mg/kg/injection, schedule: Q01DX005 (ip), vehicle: saline
[13] = dose: 12.5 mg/kg/injection, schedule: Q01DX005 (ip), vehicle: saline with Tween-80
[14] = dose: 200.0 mg/kg/injection, schedule: Q01DX005 (ip), vehicle: saline with Tween-80
[15] = dose: 120.0 mg/kg/injection, schedule: Q01DX005 (ip), vehicle: saline
[16] = dose: 100.0 mg/kg/injection, schedule: Q04DX003 (ip), vehicle: saline
[17] = dose: 200.0 mg/kg/injection, schedule: Q04DX003 (ip), vehicle: saline

COc1ccc(C2C3=C(CC(C)(C)CC3=O)Oc3cc4c(cc32)OCO4)cc1 (stereo not drawn)
T/C [1]: 93 % of control | T/C [2]: 96 % of control

CN(C)CCCNC(=O)Cc1cc(O)c2c(c1O)C(=O)c1ccccc1C2=O
T/C (dose: 25.0 mg/kg/injection, schedule: Q04DX003 (ip), vehicle: saline with Tween-80): 106 % of control | T/C (dose: 50.0 mg/kg/injection, schedule: Q04DX003 (ip), vehicle: saline with Tween-80): 106 % of control | T/C (dose: 100.0 mg/kg/injection, schedule: Q04DX003 (ip), vehicle: saline with Tween-80): 104 % of control and 123 % of control | T/C (dose: 200.0 mg/kg/injection, schedule: Q04DX003 (ip), vehicle: saline with Tween-80): 120 % of control and 95 % of control

CCOC(=O)N/N=C/c1ccc2c(c1)c1ccccc1n2CC
T/C [3]: 90 % of control | T/C [4]: 98 % of control | T/C [5]: 90 % of control

COc1ccc(C2=Nn3c(nc(N)nc3=N)SC2)cc1
T/C [6]: 113 % of control | T/C [7]: 100 % of control | T/C [8]: 96 % of control

C1=Cc2ccccc2C(=C2CCOCC2)c2ccccc21
T/C [9]: 113 % of control | T/C [10]: 100 % of control | T/C [11]: 94 % of control

Cc1ccc(S(=O)(=O)O/N=C2/CCC(C)(C)c3ccccc32)cc1
T/C (dose: 100.0 mg/kg/injection, schedule: Q01DX009 (ip), vehicle: saline with Tween-80): 90 % of control | T/C (dose: 200.0 mg/kg/injection, schedule: Q01DX009 (ip), vehicle: saline with Tween-80): 100 % of control | T/C (dose: 400.0 mg/kg/injection, schedule: Q01DX009 (ip), vehicle: saline with Tween-80): 90 % of control

C/C(=N/NS(=O)(=O)c1c(C(C)C)cc(C(C)C)cc1C(C)C)c1cccc2c1OCO2
T/C (dose: 15.0 mg/kg/injection, schedule: Q01DX005 (ip), vehicle: saline with Tween-80): 91 % of control | T/C (dose: 30.0 mg/kg/injection, schedule: Q01DX005 (ip), vehicle: saline with Tween-80): 93 % of control | T/C [1]: 87 % of control and 92 % of control

N#CC1(C#N)C(CCl)C1(C#N)C#N
T/C (dose: 12.5 mg/kg/injection, schedule: Q01DX009 (ip), vehicle: saline with Tween-80): 98 % of control | T/C (dose: 25.0 mg/kg/injection, schedule: Q01DX009 (ip), vehicle: saline with Tween-80): 94 % of control | T/C (dose: 50.0 mg/kg/injection, schedule: Q01DX009 (ip), vehicle: saline with Tween-80): 98 % of control | T/C [9]: 102 % of control

COC(=O)C[N+](C)(C)Cc1ccccc1
T/C (dose: 50.0 mg/kg/injection, schedule: Q01DX009 (ip), vehicle: DMSO): 97 % of control | T/C (dose: 100.0 mg/kg/injection, schedule: Q01DX009 (ip), vehicle: DMSO): 99 % of control

NC(Cc1ccccc1)C(=O)Nc1cccnc1 (stereo not drawn)
T/C (dose: 15.0 mg/kg/injection, schedule: Q01DX005 (ip), vehicle: saline): 98 % of control | T/C (dose: 30.0 mg/kg/injection, schedule: Q01DX005 (ip), vehicle: saline): 102 % of control | T/C [12]: 102 % of control and 105 % of control

COc1ccc(CNC(=O)C#CCOC2CCCCO2)cc1 (stereo not drawn)
T/C [13]: 91 % of control | T/C [6]: 90 % of control | T/C [7]: 86 % of control | T/C [14]: 86 % of control

OC(C[n+]1ccccc1)c1ccccc1 (stereo not drawn)
T/C (dose: 6.25 mg/kg/injection, schedule: Q01DX009 (ip), vehicle: saline): 105 % of control | T/C (dose: 12.5 mg/kg/injection, schedule: Q01DX009 (ip), vehicle: saline): 100 % of control | T/C (dose: 25.0 mg/kg/injection, schedule: Q01DX009 (ip), vehicle: saline): 109 % of control | T/C [9]: 100 % of control

OCc1ccc2ccc3ccc(CO)nc3c2n1
T/C [13]: 97 % of control | T/C [6]: 111 % of control | T/C [7]: 104 % of control and 109 % of control | T/C [8]: 113 % of control

COc1ccc(-c2nn(C)c3c2C(=O)CCC3)cc1OC
T/C (dose: 100.0 mg/kg/injection, schedule: Q04DX003 (ip), vehicle: Klucel (hydroxypropylcellulose) (HPC)): 94 % of control | T/C (dose: 200.0 mg/kg/injection, schedule: Q04DX003 (ip), vehicle: Klucel (hydroxypropylcellulose) (HPC)): 99 % of control

C=C1C(=O)O[C@H]2CCC[C@@]12C
T/C (dose: 100.0 mg/kg/injection, schedule: Q01DX001 (ip), vehicle: saline with Tween-80): 103 % of control | T/C (dose: 200.0 mg/kg/injection, schedule: Q01DX001 (ip), vehicle: saline with Tween-80): 106 % of control | T/C (dose: 400.0 mg/kg/injection, schedule: Q01DX001 (ip), vehicle: saline with Tween-80): 113 % of control

CCCNC(=S)Nc1ncco1
T/C [9]: 100 % of control | T/C [10]: 96 % of control | T/C [11]: 111 % of control

NNC(=O)CCCCl
T/C [12]: 111 % of control | T/C [15]: 110 % of control

CSC1=NC(=S)C(C)(C)NN1
T/C (dose: 100.0 mg/kg/injection, schedule: Q04DX002 (ip), vehicle: Klucel (hydroxypropylcellulose) (HPC)): 104 % of control

COc1c2c(c3c(c1OC)CN(CC(c1ccccc1)c1ccccc1)CC3)CCC2
T/C (dose: 100.0 mg/kg/injection, schedule: Q04DX002 (ip), vehicle: saline): 101 % of control | T/C (dose: 200.0 mg/kg/injection, schedule: Q04DX002 (ip), vehicle: saline): 103 % of control | T/C (dose: 400.0 mg/kg/injection, schedule: Q04DX002 (ip), vehicle: saline): 103 % of control

C[N+](C)(C)CN1C(=O)c2ccccc2C1=O
T/C (dose: 50.0 mg/kg/injection, schedule: Q04DX003 (ip), vehicle: saline): 100 % of control | T/C [16]: 104 % of control | T/C [17]: 95 % of control

C[CH2][Sn]([CH2]C)([O]S(C)(=O)=O)[O]S(C)(=O)=O
T/C (dose: 1.56 mg/kg/injection, schedule: Q04DX003 (ip), vehicle: saline): 114 % of control | T/C (dose: 6.25 mg/kg/injection, schedule: Q04DX003 (ip), vehicle: saline): 117 % of control and 118 % of control | T/C (dose: 12.5 mg/kg/injection, schedule: Q04DX003 (ip), vehicle: saline): 164 % of control

CC1=CCC2C(C)(C)CCCC2(C)C1COC1OC(OCC2C(C)=CCC3C(C)(C)CCCC23C)C2C1=CCC1C(C)(C)CCCC21C (stereo not drawn)
T/C (dose: 15.0 mg/kg/injection, schedule: Q01DX009 (ip), vehicle: Klucel (hydroxypropylcellulose) (HPC)): 96 % of control | T/C (dose: 30.0 mg/kg/injection, schedule: Q01DX009 (ip), vehicle: Klucel (hydroxypropylcellulose) (HPC)): 102 % of control | T/C (dose: 60.0 mg/kg/injection, schedule: Q01DX009 (ip), vehicle: Klucel (hydroxypropylcellulose) (HPC)): 93 % of control | T/C (dose: 120.0 mg/kg/injection, schedule: Q01DX009 (ip), vehicle: Klucel (hydroxypropylcellulose) (HPC)): 94 % of control

CCOC(=O)C(=CNc1cccc2cccnc12)C(=O)OCC
T/C (dose: 100.0 mg/kg/injection, schedule: Q04DX002 (ip), vehicle: saline with Tween-80): 97 % of control | T/C (dose: 200.0 mg/kg/injection, schedule: Q04DX002 (ip), vehicle: saline with Tween-80): 99 % of control | T/C (dose: 400.0 mg/kg/injection, schedule: Q04DX002 (ip), vehicle: saline with Tween-80): 99 % of control

Cc1cnc2cc(Cl)ccc2c1SCC(=O)O
T/C [7]: 104 % of control | T/C [8]: 108 % of control | T/C [14]: 108 % of control

CC(CN(C)C)C(=O)/C=C/c1ccc(Cl)cc1 (stereo not drawn)
T/C [12]: 118 % of control | T/C [15]: 122 % of control

COc1ccc(CCN(C=O)c2ccc(OC)c(OC)c2)cc1OC
T/C (dose: 25.0 mg/kg/injection, schedule: Q01DX009 (ip), vehicle: other): 115 % of control | T/C (dose: 50.0 mg/kg/injection, schedule: Q01DX009 (ip), vehicle: other): 108 % of control | T/C (dose: 100.0 mg/kg/injection, schedule: Q01DX009 (ip), vehicle: other): 102 % of control | T/C (dose: 200.0 mg/kg/injection, schedule: Q01DX009 (ip), vehicle: other): 108 % of control | T/C (dose: 400.0 mg/kg/injection, schedule: Q01DX009 (ip), vehicle: other): 96 % of control

O=C(Cc1nc2ccc(Cl)cc2[nH]c1=O)c1ccncc1
T/C [1]: 94 % of control | T/C [2]: 100 % of control | T/C (dose: 240.0 mg/kg/injection, schedule: Q01DX005 (ip), vehicle: saline with Tween-80): 119 % of control

CCOc1ccc(-n2c(O)c(N=Nc3ccccc3OC)sc2=S)cc1
T/C [3]: 97 % of control | T/C [4]: 93 % of control | T/C [5]: 95 % of control

Cc1nc(C)n2ncnc2c1C
T/C [16]: 93 % of control | T/C [17]: 102 % of control | T/C (dose: 400.0 mg/kg/injection, schedule: Q04DX003 (ip), vehicle: saline): 95 % of control
